Publication PMC12490239, “Combining BET inhibition with SMAC mimetics restricts tumor growth and triggers immune surveillance in preclinical cancer models” (Cell Reports Medicine, 2025)

How the values were obtained:
Assay in all cases: cells
Parameters in all cases: CellTiter-Glo 2.0 luminescence proliferation/viability assay, single agents, human tumour cell line panel
C106 = conditions: 96 h; single agent; read-out: IC50 SMACm
Method in brief: (§1)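 Human tumour cell lines were seeded into assay plates and held at 37°C with 5% CO2 for twenty-four hours, then exposed in triplicate to rising concentrations of the SMAC mimetic, from 4.5 nM to 10 μM, with DMSO as control. After 96 h, viability was read as CellTiter-Glo2.0 luminescence to derive single-agent IC50 values.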

C80 = conditions: 96 h; single agent; read-out: IC50 SMACm
Method in brief: as §1

CL14 = conditions: 96 h; single agent; read-out: IC50 SMACm
Method in brief: as §1

COLO-201 = conditions: Homo sapiens, COLO 201, 96 h; single agent; read-out: IC50 SMACm
Method in brief: as §1

DLD-1 = conditions: Homo sapiens, DLD-1, 96 h; single agent; read-out: IC50 SMACm
Method in brief: as §1

HRA16 = conditions: 96 h; single agent; read-out: IC50 SMACm
Method in brief: as §1

KM12C = conditions: Homo sapiens, KM12C, 96 h; single agent; read-out: IC50 SMACm
Method in brief: as §1

KM20 = conditions: 96 h; single agent; read-out: IC50 SMACm
Method in brief: as §1

LIM2551 = conditions: 96 h; single agent; read-out: IC50 SMACm
Method in brief: as §1

NCI-H1373 = conditions: Homo sapiens, NCI-H1373, 96 h; single agent; read-out: IC50 SMACm
Method in brief: as §1

RCM-1 = conditions: Homo sapiens, RCM-1, 96 h; single agent; read-out: IC50 SMACm
Method in brief: as §1

RERF-LC-Ad2 = conditions: RERF-LC-Ad2, 96 h; single agent; read-out: IC50 SMACm
Method in brief: as §1

SUIT-2 = conditions: SUIT-2, 96 h; single agent; read-out: IC50 SMACm
Method in brief: as §1

SW48 = conditions: Homo sapiens, SW48, 96 h; single agent; read-out: IC50 SMACm
Method in brief: as §1

SW620 = conditions: Homo sapiens, SW-620, 96 h; single agent; read-out: IC50 SMACm
Method in brief: as §1

- IC50 (COLO-201): 0.369 µM
- IC50 (DLD-1): 5.19 µM
- IC50 (NCI-H1373): > 10 µM
- IC50 (SW48): 5.9 µM
- IC50 (SW620): 4.46 µM
Structure (SMILES): CN[C@@H](C)C(=O)Nc1ccc(-c2c(-c3cccnc3OC)nc3cc(C)ccn23)c(C#Cc2ccc3c(C)nccc3c2)n1 [SMACm, BI 891065]
- IC50 (C106): 1.6 µM
- IC50 (C80): 1.81 µM
- IC50 (CL14): 1.91 µM
- IC50 (HRA16): 3.99 µM
- IC50 (KM12C): 5.22 µM
- IC50 (KM20): 5.04 µM
- IC50 (LIM2551): 2.25 µM
- IC50 (RCM-1): 5.76 µM
- IC50 (RERF-LC-Ad2): 2.52 µM
- IC50 (SUIT-2): 4.77 µM
